Results published in ChEMBL document CHEMBL1944551, “An integrated computational workflow for efficient and quantitative modeling of renin inhibitors” (Bioorg Med Chem, 2012).
pIC50: −log10 of the molar value.

target: T1, Renin (Homo sapiens, UniProt P00797); experiment: not given; conditions: not given
T1 sequence (P00797 whole entry): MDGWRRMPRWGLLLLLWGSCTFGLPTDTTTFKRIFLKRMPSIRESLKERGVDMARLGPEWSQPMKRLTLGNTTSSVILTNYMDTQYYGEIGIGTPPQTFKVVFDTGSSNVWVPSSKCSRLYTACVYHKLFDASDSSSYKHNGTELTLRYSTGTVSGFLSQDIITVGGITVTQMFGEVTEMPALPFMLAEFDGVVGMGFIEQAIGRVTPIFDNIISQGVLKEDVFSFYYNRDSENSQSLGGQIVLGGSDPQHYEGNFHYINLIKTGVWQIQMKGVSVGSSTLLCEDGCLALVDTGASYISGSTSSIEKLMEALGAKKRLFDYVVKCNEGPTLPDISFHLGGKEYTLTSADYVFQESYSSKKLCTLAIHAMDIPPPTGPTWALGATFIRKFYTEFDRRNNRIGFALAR

| pIC50 | Compound |
| --- | --- |
| 7.80 | Cc1ccc(F)cc1Oc1c(C(=O)N2CCNCC2)c2ccc(O)cc2n1-c1ccc(F)cc1 |
| 6.37 | Cc1c(F)cccc1Cc1cc2c(cc1O)c(C(=O)N1CCNCC1)c(Cc1cccc(F)c1C)n2-c1ccccc1 |
| 6.27 | O=C(c1c(Oc2ccccc2)n(-c2ccccc2)c2cc(Cl)ccc12)N1CCNCC1 |
| 7.99 | Cc1cccc(CN(C(=O)[C@H]2CNCC(=O)N2c2ccc(OCCOc3c(Cl)cc(F)cc3Cl)cc2)C2CC2)c1C |
| 8.11 | Cc1cc(Cl)c(OCCOc2ccc(N3C(=O)CNC[C@@H]3C(=O)N(Cc3cccc(C)c3C)C3CC3)cc2)cc1C |

| Compound | pIC50 |
| --- | --- |
| Cc1ccc(F)cc1Oc1c(C(=O)N2CCNCC2)c2ccccc2n1[C@H]1C=CCCC1 | 8.19 |

tested on: not listed separately; experiment: physchem; conditions: octanol/buffer

| logP | Compound |
| --- | --- |
| 5.11 | COCCCc1cc(CN(C(=O)[C@H]2CNCC(=O)N2c2ccc(CCCOc3c(F)ccc(F)c3F)cc2)C2CC2)c(Cl)cn1 |
| 5.7 | O=C([C@H]1CNCC(=O)N1c1ccc(OCCCOCc2ccccc2)cc1)N(Cc1cccc(Cl)c1Cl)C1CC1 |
| 5.48 | Cc1cc(Cl)c(OCCOc2ccc(N3C(=O)CNC[C@@H]3C(=O)N(Cc3cc(CNC4CC4)ccc3Cl)C3CC3)cn2)c(Cl)c1 |
| 6.46 | O=C([C@H]1CNCC(=O)N1c1ccc(CCCOc2cccc(Cl)c2)cc1)N(Cc1cc(CCNC2CC2)ccc1Cl)C1CC1 |
| 5.56 | Cc1cc(Cl)c(OCCOc2ccc(N3C(=O)CNC[C@@H]3C(=O)N(Cc3cc(CCNC(=O)COC(C)(C)C)ccc3Cl)C3CC3)cn2)c(Cl)c1 |
| 5.37 | CC(=O)NCc1ccc(Cl)c(CN(C(=O)[C@H]2CNCC(=O)N2c2ccc(CCCOc3cccc(Cl)c3)cc2)C2CC2)c1 |
| 4.33 | COCCCc1cc(CN(C(=O)[C@H]2CNCC(=O)N2c2ccc(COC(=O)c3ccccc3)cc2)C2CC2)c(Cl)c[n+]1[O-] |
| 3.86 | CN(Cc1ccccc1)C(=O)[C@H]1CNCC(=O)N1c1ccc(OCCCOCc2ccccc2)cc1 |
| 4.22 | COc1c(CN(C(=O)[C@H]2CNCC(=O)N2c2ccc(OCCOc3c(Cl)cc(C)cc3Cl)cc2)C2CC2)ccnc1C |
| 4.88 | O=C(NCc1ccccc1Cl)[C@H]1CNCC(=O)N1c1ccc(CCCOc2c(F)ccc(F)c2F)cc1 |
| 6.39 | COCCCc1ccc(Cl)c(CN(C(=O)[C@H]2CNCC(=O)N2c2ccc(CCCOc3c(F)ccc(F)c3F)cc2)C2CC2)c1 |
| 4.49 | CCNC(=O)Cc1ccc(Cl)c(CN(C(=O)[C@H]2CNCC(=O)N2c2ccc(COC(=O)c3ccccc3)cc2)C2CC2)c1 |
| 5.69 | Cc1cccc(CN(C(=O)[C@H]2CNCC(=O)N2c2ccc(OCCOc3c(Cl)cc(F)cc3Cl)cc2)C2CC2)c1C |
| 5.18 | Cc1cc(Cl)c(OCCOc2ccc(N3C(=O)CNC[C@@H]3C(=O)N(C)Cc3ccccc3Cl)cc2)c(Cl)c1 |
| 2.65 | COCCCc1cc(CN(C(=O)[C@H]2CNCC(=O)N2c2cnc(OCCCOCc3ccccc3OC)nc2)C2CC2)c(Cl)c[n+]1[O-] |
| 4.55 | CNCc1ccc(Cl)c(CN(C(=O)[C@H]2CNCC(=O)N2c2ccc(COC(=O)c3ccccc3)cc2)C2CC2)c1 |
| 5.29 | CC(=O)NCc1ccc(Cl)c(CN(C(=O)[C@H]2CNCC(=O)N2c2ccc(OCCOc3c(Cl)cc(C)cc3Cl)cc2)C2CC2)c1 |
| 6.05 | O=C([C@H]1CNCC(=O)N1c1ccc(CCCOc2c(F)ccc(F)c2F)cc1)N(Cc1cc(CCNCC(F)F)ccc1Cl)C1CC1 |
| 3.39 | COc1c(CN(C(=O)[C@H]2CNCC(=O)N2c2ccc(OCCOc3c(Cl)cc(C)cc3Cl)nc2)C2CC2)ccnc1C |
| 4.76 | COc1cccc(CN(C(=O)[C@H]2CNCC(=O)N2c2ccc(OCCCOCc3ccccc3)cc2)C2CC2)c1C |
| 4.68 | Cc1cc(Cl)c(OCCOc2ccc(N3C(=O)CNC[C@@H]3C(=O)N(C)CCc3ccccc3)cc2)c(Cl)c1 |
| 2.8 | CNC(=O)OCc1ccc(Cl)c(CN(C(=O)[C@H]2CNCC(=O)N2c2cnc(OCCCOCc3ccccc3OC)nc2)C2CC2)c1 |

The remaining lines, values behind:

| Compound | logP |
| --- | --- |
| Cc1ccc(F)cc1Oc1c(C(=O)N2CCNCC2)c2ccc(O)cc2n1-c1ccc(F)cc1 | 5.45 |
| Cc1c(F)cccc1Cc1cc2c(cc1O)c(C(=O)N1CCNCC1)c(Cc1cccc(F)c1C)n2-c1ccccc1 | 7.78 |
| O=C(c1c(Oc2ccccc2)n(-c2ccccc2)c2cc(Cl)ccc12)N1CCNCC1 | 5.71 |
| Cc1ccc(F)cc1Oc1c(C(=O)N2CCNCC2)c2ccccc2n1[C@H]1C=CCCC1 | 5.3 |
| Cc1cc(Cl)c(OCCOc2ccc(N3C(=O)CNC[C@@H]3C(=O)N(C)Cc3ccccc3)cn2)c(Cl)c1 | 3.76 |
| CNC(=O)OCCc1ccc(Cl)c(CN(C(=O)[C@H]2CNCC(=O)N2c2ccc(OCCCOCc3ccccc3)cc2)C2CC2)c1 | 4.94 |
| COCCCc1cc(CN(C(=O)[C@H]2CNCC(=O)N2c2ccc(OCCOc3c(Cl)cc(C)cc3Cl)nc2)C2CC2)c(Cl)c[n+]1[O-] | 4.61 |
| CCC(=O)NCc1ccc(Cl)c(CN(C(=O)[C@H]2CNCC(=O)N2c2ccc(CCCOc3cccc(Cl)c3)cc2)C2CC2)c1 | 5.84 |
| Cc1cc(Cl)c(OCCOc2ccc(N3C(=O)CNC[C@@H]3C(=O)N(Cc3cc(CNC(=O)C4CC4)ccc3Cl)C3CC3)cn2)c(Cl)c1 | 4.82 |
| O=C(OCc1ccc(N2C(=O)CNC[C@@H]2C(=O)N(Cc2cc(CNCCF)ccc2Cl)C2CC2)cc1)c1ccccc1 | 4.66 |
| CNC(=O)OCCc1ccc(Cl)c(CN(C(=O)[C@H]2CNCC(=O)N2c2ccc(OCCOc3c(Cl)cc(C)cc3Cl)cc2)C2CC2)c1 | 5.67 |
| CNCCc1ccc(Cl)c(CN(C(=O)[C@H]2CNCC(=O)N2c2cnc(OCCCOCc3ccccc3OC)nc2)C2CC2)c1 | 2.95 |
| O=C(CC(F)(F)F)NCc1ccc(Cl)c(CN(C(=O)[C@H]2CNCC(=O)N2c2ccc(CCCOc3cccc(Cl)c3)cc2)C2CC2)c1 | 6.09 |
| CCC(=O)NCc1ccc(Cl)c(CN(C(=O)[C@H]2CNCC(=O)N2c2ccc(OCCOc3c(Cl)cc(C)cc3Cl)nc2)C2CC2)c1 | 4.94 |
| CN(CCc1ccccc1)C(=O)[C@H]1CNCC(=O)N1c1ccc(CCCOc2cccc(Cl)c2)cc1 | 4.75 |
| CCC(=O)NCc1ccc(Cl)c(CN(C(=O)[C@H]2CNCC(=O)N2c2ccc(OCCCOCc3ccccc3)cc2)C2CC2)c1 | 5.04 |
| Cc1cccc(CN(C(=O)[C@H]2CNCC(=O)N2c2ccc(CCCOc3cccc(Cl)c3)cc2)C2CC2)c1C | 5.91 |

| Compound | logP |
| --- | --- |
| Cc1cc(Cl)c(OCCOc2ccc(N3C(=O)CNC[C@@H]3C(=O)N(Cc3cc(CCNC4CC4)ccc3Cl)C3CC3)cc2)c(Cl)c1 | 6.39 |
| O=C(NCc1ccc(Cl)c(CN(C(=O)[C@H]2CNCC(=O)N2c2ccc(CCCOc3cccc(Cl)c3)cc2)C2CC2)c1)C1CC1 | 5.72 |
| COc1cccc(CN(C(=O)[C@H]2CNCC(=O)N2c2ccc(COC(=O)c3ccccc3)cc2)C2CC2)c1C | 4.39 |
| CN(CCc1ccccc1)C(=O)[C@H]1CNCC(=O)N1c1ccc(CCCOc2c(F)ccc(F)c2F)cc1 | 4.57 |
| COc1c(CN(C(=O)[C@H]2CNCC(=O)N2c2ccc(CCCOc3cccc(Cl)c3)cc2)C2CC2)ccnc1C | 4.29 |
| Cc1cc(Cl)c(OCCOc2ccc(N3C(=O)CNC[C@@H]3C(=O)N(Cc3cccc(C)c3C)C3CC3)cc2)cc1C | 5.54 |
| Cc1cc(Cl)c(OCCOc2ccc(N3C(=O)CNC[C@@H]3C(=O)N(Cc3cc(CC(=O)NC4CC4)ccc3Cl)C3CC3)cn2)c(Cl)c1 | 5.08 |
| COCCc1ccc(Cl)c(CN(C(=O)[C@H]2CNCC(=O)N2c2ccc(OCCOc3c(Cl)cc(C)cc3Cl)cc2)C2CC2)c1 | 6.05 |
| O=C([C@H]1CNCC(=O)N1c1ccc(CCCOc2cccc(Cl)c2)cc1)N(Cc1ccccc1Cl)C1CC1 | 5.9 |
| COCCCc1cc(CN(C(=O)[C@H]2CNCC(=O)N2c2ccc(OCCCOCc3ccccc3)cc2)C2CC2)c(Cl)cn1 | 4.49 |
| COc1ccccc1COCCCOc1ncc(N2C(=O)CNC[C@@H]2C(=O)N(Cc2cc(CCNC(=O)CC(F)(F)F)ccc2Cl)C2CC2)cn1 | 3.32 |
| Cc1cc(Cl)c(OCCOc2ccc(N3C(=O)CNC[C@@H]3C(=O)NCc3ccccc3)cn2)c(Cl)c1 | 3.56 |
| COC(=O)NCc1ccc(Cl)c(CN(C(=O)[C@H]2CNCC(=O)N2c2cnc(OCCCOCc3ccccc3OC)nc2)C2CC2)c1 | 2.8 |
| COc1ccccc1COCCCOc1ncc(N2C(=O)CNC[C@@H]2C(=O)N(Cc2cc(CNC3CC3)ccc2Cl)C2CC2)cn1 | 3.52 |
| O=C([C@H]1CNCC(=O)N1c1ccc(CCCOc2cccc(Cl)c2)cc1)N(Cc1cc(CNCC(F)F)ccc1Cl)C1CC1 | 6.14 |
| COc1ccccc1COCCCOc1ncc(N2C(=O)CNC[C@@H]2C(=O)N(Cc2cccc(Cl)c2)C2CC2)cn1 | 3.09 |

same assay, conditions: octanol/water

| Compound | logP |
| --- | --- |
| COc1ccccc1COCCCOc1ncc(N2C(=O)CNC[C@@H]2C(=O)NCc2ccccc2Cl)cn1 | 2.2 |
